Measurements taken from US6878522B2, “Methods for the identification of compounds useful for the treatment of disease states mediated by prostaglandin D2” (priority 2000, dated 2005).

Experiments:
[1] = test system: isolated human eosinophils; assay: Chemotaxis of isolated human eosinophils; format: cell-based
Procedure: In a specific example of this method, a competitive assay is performed to test compounds for their ability to interrupt the attraction of CRTH2 cells to PGD2. In this method, test compounds are diluted into the bottom wells of the Boyden chemotaxis chamber. A constant amount of PGD2 is also added to this dilution series, at a concentration known to have a chemotactic effect on CRTH2 cells. As a control, at least one aliquot contains only PGD2. Cells expressing CRTH2 are resuspended at 3-3.5×10^6 cells/ml in RPMI 1640 supplemented with 10 mM HEPES and 1 mg/ml bovine serum albumin (Sigma, St. Louis, Mo.), and placed into the upper wells of the chamber. The chambers are incubated for 90-120 minutes at 37° C. in a humidified CO2 incubator. After the incubation period, the number of migrating cells on the lower surface of the membrane filter is counted using light microscopy. The contribution of the test compound to the chemotactic activity of PGD2 is measured by comparing the chemotactic activity of the aliquots containing only PGD2 with the activity of aliquots containing test compound and PGD2. If addition of the test compound to the PGD2 solution results in a […] in the number of cells detected on the lower surface of the membrane relative to the number of cells detected using a solution containing only PGD2, then there is identified an antagonist of PGD2 induction of chemotactic activity of cells expressing CRTH2. In contrast, if the addition of the test compound to the PGD2 solution results in a […] in the number of cells detected on the lower surface of the membrane (relative to the number of cells detected using a solution containing only PGD2), then an […] of PGD2 induction of chemotactic activity of cells expressing CRTH2 is identified.
The chemotactic response of human T lymphocytes to PGD2, murine MDC and murine mSDF was also assayed. Chemotaxis was determined using a 48-well Boyden chamber (Neuroprobe, Cabin John, Md.), and 3.0 μm polycarbonate filters. Cells were resuspended (3-3.5×10^6 cells/ml) in RPMI 1640 supplemented with 10 mM HEPES and 1 mg/ml bovine serum albumin (Sigma, St. Louis, Mo.), and placed into the upper wells of the chamber. The compound to be tested was placed in the lower wells. The chambers were incubated for 90-120 minutes at 37° C. in a humidified CO2 incubator. At the end of the incubation period, the number of migrating cells on the filter (expressed per high power field) were enumerated microscopically. […] In FIG. 4, the chemotactic response of human basophils to PGD2 and C5a is shown.

[2] = biological target: T1, human eosinophil [3H]-PGD2 binding site (Homo sapiens, UniProt Q9Y5Y4); assay: [3H]PGD2 binding in isolated human eosinophils; conditions: number in brackets not defined
T1 construct: endogenous in cells; host or cells: isolated human eosinophils
T1 sequence (Q9Y5Y4 1-395): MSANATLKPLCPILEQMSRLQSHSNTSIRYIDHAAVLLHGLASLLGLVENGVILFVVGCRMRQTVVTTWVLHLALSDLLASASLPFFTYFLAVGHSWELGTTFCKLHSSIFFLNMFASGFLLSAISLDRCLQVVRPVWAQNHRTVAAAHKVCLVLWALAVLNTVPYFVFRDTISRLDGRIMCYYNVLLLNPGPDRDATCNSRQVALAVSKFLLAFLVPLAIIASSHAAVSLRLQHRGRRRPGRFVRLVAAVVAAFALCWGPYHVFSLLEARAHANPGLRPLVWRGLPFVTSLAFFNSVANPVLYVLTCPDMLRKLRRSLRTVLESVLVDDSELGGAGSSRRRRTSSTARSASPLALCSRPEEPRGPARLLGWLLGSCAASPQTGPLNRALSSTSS
From the text: As is shown in FIG. 1B, the effects of the prostaglandins and analogs on human eosinophil [^3H]-PGD2 binding site and eosinophil functional responses have the same order of potency (i.e., PGD2>PGF2a>>BW245C).

[3] = test system: isolated human eosinophils; assay: [Ca2+]i mobilization in isolated human eosinophils; format: cell-based
From the text: Calcium mobilization can be detected and measured by flow cytometry, and by labeling with fluorescent dyes that are trapped intracellularly. […] The ratio of fluorescence produced by the calcium-bound dye to that produce by the unbound dye is used to estimate the intracellular calcium concentration. In one embodiment, for example, the following method can be used. Cells that express CRTH2 are collected, and resuspended in fresh media at ˜2×10^5/ml the day before performing the calcium flux assay. Cells are incubated at 37° C. for not longer than 20-30 minutes, and then spun down and resuspended in 50 ml fresh PTI buffer (Hank's Buffer, pH 7.2-7.4; 10 mM Hepes; 1.6 mM CaCl2) containing Indo-1 AM, pre-warmed to 37° C., at a concentration of 10 million per ml. Cells are excited, and fluorescence is measured using a fluorimeter (Photon Technology Corporation, International). After the readout has stabilized, the time axis is reset, and PGD2 is added at a specific time point (e.g., 20 seconds). After response, the following reagents are added to the cuvette, to release and chelate total calcium, in the following order: 20 μl of 18% Triton X-100, 20 μl of 3M Tris, pH 8.5, and 20 μl of 0.5 M EGTA, pH 8.5. The experiment is repeated in the presence and the absence of a test compound. […] Therefore, in the presence of an […] test compound, the EC50 would be expected to be higher than this value, whereas in the presence of an agonist test compound, the EC50 would be expected to decrease.

[4] = test system: isolated human eosinophils; assay: Reactive oxygen species (ROS) release in isolated human eosinophils; format: cell-based
Procedure: Another secondary assay is the reactive oxygen species release assay. One measure of PGD2-induced activation of CRTH2 cells, such as eosinophils, is the intracellular release of reactive oxygen species. This can be tested in a reactive oxygen species release assay, or ROS, using lucigenin-dependent chemiluminescence to measure reactive oxygen species release. In this method, freshly isolated eosinophils are prepared, by standard methods, and resuspended at concentration 2-4×10^6 cells/ml in (RPMI; 10 mM HEPES; 1× Pen/Strep; 0.5% FBS) at room temperature. Immediately prior to use, 1 ml of cell suspension is added to 9 ml of buffer, prewarmed to 37° C. for 15 minutes, and added 0.5 ml of 200 mM Lucigenin.
Test compounds (made as 10,000× DMSO stocks) are diluted in buffer with DMSO (1.5 ul of DMSO/2.5 ml Buffer) and 25 μl/well added to white 96-well culture plate and placed in a 37° C. incubator. Isolated cells (held at room temperature) are diluted with room temperature buffer to 2-4×10^6 cells/ml, and incubated in a water bath at 37° C. for 15 minutes. At 15 minutes, 0.5 ml 200 mM lucigenin (bis-N-Methylacridinium Nitrate; Sigma, St. Louis, Mo.) is added to 10 ml of the cell suspension, mixed, and 100 μl/well is added to the prewarmed microtiter plate. The plate is returned to 37° C. for 5 minutes, at which time 25 μl of stimulus is added) The plate is read in the luminometer for 8 cycles. The luminescence of test compounds can be tested in the presence of PGD2, relative to a control sample containing PGD2 alone. A compound that interferes with the ability of PGD2 to result in intracellular reactive oxygen species release in CRTH2 cells, is a candidate for a CRTH2 antagonist.

EC50 [1] | IC50 [2] | EC50 [3] | EC50 [4] | Compound
> 1000 nM | > 100000 nM | > 1000 nM | > 1000 nM | O=C(O)CCCCCCC1C(=O)NC(=O)N1CCC(O)C1CCCCC1 (stereo not shown) [BW-245C]
> 100 nM | 3300 nM | > 1000 nM | > 100 nM | CCCCC[C@H](O)/C=C/[C@H]1[C@H](O)CC(=O)[C@@H]1C/C=C\CCCC(=O)O [PGE2]
> 100 nM | 1500 nM | > 1000 nM | > 1000 nM | CCCCC[C@H](O)/C=C/[C@@H]1[C@@H](C/C=C\CCCC(=O)O)[C@@H](O)C[C@H]1O [PGF2α]

Compound | EC50 [1] | IC50 [2] | EC50 [3] | EC50 [4]
CCCCC[C@H](O)/C=C/[C@H]1C(=O)C[C@H](O)[C@@H]1C/C=C\CCCC(=O)O [PGD2, prostaglandin D2] | 3 nM | 25 nM | 30 nM | 2 nM
